Reference: US5863937A, “Pharmaceutical compositions” (BTG International Limited, priority 1993, dated 1999)
Converted amounts (≈) assume the structure as drawn.

Assays:
Test in all cases: MIC, broth serial dilution in liquid YNB medium
C. albicans 2043 = assay type: cell-based, Candida albicans; settings: YNB-Difco medium, 200 μg/ml sodium glutamate, 10^5 cells/ml, 30° C., 24 hours
Experimental: (§1) The minimum inhibiting concentrations (MIC) in mg/ml were determined for the compounds of Examples 1, 2, 7, 8, 12 and 13 against various Candida sp. using the broth serial dilution method of Milewski et al., Drugs Exp. Clin. Res., 1988, 14, 461. A liquid Yeast Nitrogen Base (YNB)-Difco medium containing 200 μg/ml sodium glutamate was used with a content of 10^5 cells/ml at a temperature of 30° C. and with an incubation time of 24 hours.

C. glabrata = assay type: cell-based, Candida glabrata; settings: YNB-Difco medium, 200 μg/ml sodium glutamate, 10^5 cells/ml, 30° C., 24 hours
Experimental: as §1

C. albicans ATTC 26278 = assay type: cell-based, Candida albicans; settings: 30° C., 24 hours; for minimum inhibiting concentration (MIC), C. albicans ATTC 26278: YNB-Difco medium, 200 μg/ml sodium glutamate, 10^5 cells/ml; for minimum inhibiting concentration (MIC) against Candida albicans ATCC 26278: liquid YNB medium, monosodium glutamate 200 μg/ml
Experimental: The antifungal activity of the compounds has been determined by the serial dilution method in a liquid YNB (Yeast Nitrogen Base) medium containing monosodium glutamate at a concentration of 200 μg/ml, with a temperature of 30° C. and an incubation time of 24 hours.
as §1

C. krusei = assay type: cell-based, Candida krusei; settings: YNB-Difco medium, 200 μg/ml sodium glutamate, 10^5 cells/ml, 30° C., 24 hours
Experimental: as §1

C. famata 1940 = assay type: cell-based, Candida famata; settings: YNB-Difco medium, 200 μg/ml sodium glutamate, 10^5 cells/ml, 30° C., 24 hours
Experimental: as §1

[1] = listed as N^2 -L-norvalyl-N^3-trans-2,3-epoxysuccinamoyl-L-2,3-diaminopropanoic acid in th

minimum inhibiting concentration (MIC), C. albicans 2043 (C. albicans 2043)	minimum inhibiting concentration (MIC), C. glabrata (C. glabrata)	minimum inhibiting concentration (MIC), C. albicans ATTC 26278 (C. albicans ATTC 26278)	minimum inhibiting concentration (MIC) against Candida albicans ATCC 26278 (C. albicans ATTC 26278)	minimum inhibiting concentration (MIC), C. krusei (C. krusei)	minimum inhibiting concentration (MIC), C. famata 1940 (C. famata 1940)	minimum inhibiting concentration (MIC) against Candida albicans ATCC 26278 (C. albicans ATTC 26278; [1])	SMILES
1000 µg/mL (≈ 3470 µM)	1500 µg/mL (≈ 5200 µM)	1200 µg/mL (≈ 4160 µM)	1.2 µg/mL (≈ 4.16 µM)				C[C@H](N)C(=O)N[C@@H](CNC(=O)[C@@H]1O[C@H]1C(N)=O)C(=O)O (racemic) [Ala--DL--EADP, N^2 -L-alanyl-N^3 -DL-trans-2,3-epoxysuccinamoyl-L-2,3-diaminopropanoic acid, reference compound]
750 µg/mL (≈ 2370 µM)	1250 µg/mL (≈ 3950 µM)	500 µg/mL (≈ 1580 µM)		1000 µg/mL (≈ 3160 µM)	750 µg/mL (≈ 2370 µM)		CCC[C@H](NC(=O)[C@@H](N)CNC(=O)[C@@H]1O[C@H]1C(N)=O)C(=O)O (racemic) [DL--EADP--Nva, N^3 -DL-trans-2,3-Epoxysuccinamoyl-L-2,3-diaminopropionyl-L-norvaline]
500 µg/mL (≈ 1120 µM)	750 µg/mL (≈ 1690 µM)	500 µg/mL (≈ 1120 µM)		1500 µg/mL (≈ 3370 µM)	1000 µg/mL (≈ 2250 µM)		CCC[C@H](NC(=O)[C@@H](N)CCCCN)C(=O)N[C@@H](CNC(=O)[C@@H]1O[C@H]1C(N)=O)C(=O)O (racemic) [Lys--Nva--DL--EADP, N^2 -L-Lysyl-L-norvalyl-N^3 -DL-trans-2,3-epoxysuccinamoyl-L-2,3-diaminopropanoic acid]
250 µg/mL (≈ 790 µM)	750 µg/mL (≈ 2370 µM)	250 µg/mL (≈ 790 µM)		350 µg/mL (≈ 1110 µM)	500 µg/mL (≈ 1580 µM)	0.25 µg/mL (≈ 0.79 µM)	CCC[C@H](N)C(=O)N[C@@H](CNC(=O)[C@@H]1O[C@H]1C(N)=O)C(=O)O (racemic) [Nva--DL--EADP, N^2 -L-Norvalyl-N^3 -DL-trans-2,3-epoxysuccinamoyl-L-2,3-diaminopropanoic acid]
500 µg/mL (≈ 1580 µM)	1000 µg/mL (≈ 3160 µM)	400 µg/mL (≈ 1260 µM)		800 µg/mL (≈ 2530 µM)	500 µg/mL (≈ 1580 µM)		CCC[C@H](NC(=O)[C@@H](N)CNC(=O)[C@@H]1O[C@H]1C(N)=O)C(=O)O (relative stereo) [EADP--Nva, N^3 -D-trans-2,3-Epoxysuccinamoyl-L-2,3-diaminopropionyl-L-norvaline]
250 µg/mL (≈ 562 µM)	500 µg/mL (≈ 1120 µM)	200 µg/mL (≈ 450 µM)		750 µg/mL (≈ 1690 µM)	500 µg/mL (≈ 1120 µM)		CCC[C@H](NC(=O)[C@@H](N)CCCCN)C(=O)N[C@@H](CNC(=O)[C@@H]1O[C@H]1C(N)=O)C(=O)O (relative stereo) [Lys--Nva--EADP, N^2 -L-Lysyl-L-norvalyl-N^3 -D-trans-2,3-epoxysuccinamoyl-L-2,3-diaminopropanoic acid]
100 µg/mL (≈ 316 µM)	500 µg/mL (≈ 1580 µM)	150 µg/mL (≈ 474 µM)		350 µg/mL (≈ 1110 µM)	350 µg/mL (≈ 1110 µM)	0.15 µg/mL (≈ 0.474 µM)	CCC[C@H](N)C(=O)N[C@@H](CNC(=O)[C@@H]1O[C@H]1C(N)=O)C(=O)O (relative stereo) [Nva--EADP, N^2 -L-Norvalyl-N^3 -D-trans-2,3-epoxysuccinamoyl-L-2,3-diaminopropanoic acid]
